Test system: S. aureus USA300
Assay: In vitro staphyloxanthin production inhibition by NP-16 analogues
Format: cell-based, Staphylococcus aureus
Details: S. aureus USA300, methanol extract OD 450 nm, 300 nM to 700 nM
Experimental: Evaluation of NP-16 analogues in Staphyloxanthin production
The in vitro pigment inhibition studies were performed by S. aureus USA300 cultured in BHI with or without the presence of inhibitor compounds at 37° C. and 250 rpm for 36-48 hours. The bacteria were washed twice with PBS prior to the staphyloxanthin purification with methanol. The OD of the extracts were monitor at 450 nm using DTX880 multi-plate reader spectrophotometer (Beckman). The concentration range tested for the compounds were between 300 nM to 700 nM, and control groups were added with equal volume of DMSO.
The cytotoxicity of NP-16 and some of its analogues was tested against Raw 264.7 cells, and the cell tolerance of each compounds were documented in Table 3. Along with the in vitro staphyloxanthin production of the NP-16 analogues were being tested, the compounds can exert staphyloxanthin production inhibition. The staphyloxanthin from the overnight-cultured bacteria were extracted with methanol and quantified in via spectrophotometry. The results were presented in relative ratio to NP-16 in both the inhibition ratio as well as the TC50 (concentration for decreasing cell viability by 50%) in Table 3 (sample names correspond to those listed in Table 1).

Row | Compound | Relative ratio to NP16 based on inhibition ratio
1 | O=C(/C=C/c1ccccc1)Nc1ccc(S(=O)(=O)N2CCCCC2)cc1 [NP16-XL-010, 3-phenyl-N-[4-(1-piperidine-1-sulfonyl)-phenyl]acrylamide] | 1.43
2 | CC(=O)Oc1ccc(/C=C/C(=O)Nc2ccc(S(=O)(=O)N3CCCCC3)cc2)cc1 [NP16-XL-011, 3-(4-acetoxyl-phenyl)-N-[4-(1-piperidine-1-sulfonyl)phenyl]-acrylamide] | 1.31
3 | CC(=O)Oc1cccc(/C=C/C(=O)Nc2ccc(S(=O)(=O)N3CCCCC3)cc2)c1 [NP16-XL-012, 3-(5-acetoxyl-phenyl)-N-[4-(1-piperidine-1-sulfonyl)phenyl]-acrylamide] | 1.16
4 | CC(=O)Oc1ccccc1/C=C/C(=O)Nc1ccc(S(=O)(=O)N2CCCCC2)cc1 [NP16-XL-013, 3-(6-acetoxyl-phenyl)-N-[4-(1-piperidine-1-sulfonyl)phenyl]-acrylamide] | 0.28
5 | O=C(/C=C/c1ccc(Br)cc1)Nc1ccc(S(=O)(=O)N2CCCCC2)cc1 [NP16-XL-014, 3-(4-bromophenyl)-N-[4-(1-piperidine-1-sulfonyl)phenyl]-acrylamide] | 0.74
6 | O=C(/C=C/c1cccc(Br)c1)Nc1ccc(S(=O)(=O)N2CCCCC2)cc1 [NP16-XL-015, 3-(5-bromophenyl)-N-[4-(1-piperidine-1-sulfonyl)phenyl]-acrylamide] | 1.18
7 | Cc1ccc(/C=C/C(=O)Nc2ccc(S(=O)(=O)N3CCCCC3)cc2)cc1 [NP16-XL-017, 3-(4-methylphenyl)-N-[4-(1-piperidine-1-sulfonyl)phenyl]-acrylamide] | 0.09
8 | Cc1ccccc1/C=C/C(=O)Nc1ccc(S(=O)(=O)N2CCCCC2)cc1 [NP16-XL-018, 3-(6-methylphenyl)-N-[4-(1-piperidine-1-sulfonyl)phenyl]-acrylamide] | 2.48
9 | O=C(/C=C/c1ccc(Br)cc1)Nc1ccc(S(=O)(=O)N2CCCc3ccccc32)cc1 [NP16-XL-029, 3-(4-bromophenyl)-N-[4-(1,2,3,4--tetra-hydroquinoline-1-sulfonyl)phenyl]-acrylamide] | 0.53
10 | O=C(/C=C/c1ccccc1)Nc1ccc(S(=O)(=O)N2CCCc3ccccc32)cc1 [NP16-XL-030, 3-phenyl-N-[4-(1,2,3,4--tetra-hydroquinoline-1-sulfonyl)phenyl]-acrylamide] | 1.26
11 | O=C(/C=C/c1ccc(Br)cc1)Nc1ccc(S(=O)(=O)N2CCc3ccccc3C2)cc1 [NP16-XL-031, 3-(4-bromophenyl)-N-[4-(3,4-dihydro-1H-isoquinoline-2-sulfonyl)phenyl]-acrylamide] | 0.23
12 | O=C(/C=C/c1ccccc1)Nc1ccc(S(=O)(=O)N2CCc3ccccc3C2)cc1 [NP16-XL-032, 3-phenyl-N-[4-(3,4-dihydro-1H-isoquinoline-2-sulfonyl)phenyl]-acrylamide] | 1.17
13 | O=C(/C=C/c1ccccc1)Nc1ccc(S(=O)(=O)N(C(=O)/C=C/c2ccccc2)c2ccccc2)cc1 [NP16-XL-036, 3-phenyl-N-{[4-(N-phenyl-3-phenylprop-2-enamido)sulfonyl]-phenyl}-acrylamide] | 3.04
14 | O=C(/C=C/c1ccccc1)Nc1ccc(S(=O)(=O)Nc2ccccc2)cc1 [NP16-XL-037, 3-phenyl-N-[(4-phenylsulfamoyl)-phenyl]acrylamide] | 3.02
15 | O=C(/C=C/c1ccccc1Br)Nc1ccc(S(=O)(=O)Nc2ccccc2)cc1 [NP16-XL-038, 3-(6-bromophenyl)-N-[(4-phenylsul-famoyl)phenyl]-acrylamide] | 3.23
16 | O=C(/C=C/c1ccccc1Br)Nc1ccc(S(=O)(=O)N(C(=O)/C=C/c2ccccc2Br)c2ccccc2)cc1 [NP16-XL-039, 3-(6-bromophenyl)-N-{[4-(N-phenyl-3-6-bromophenyl-prop-2-enamido)-sulfonyl]phenyl}-acrylamide] | 3.23
17 | O=C(/C=C/c1c(F)cccc1F)Nc1ccc(S(=O)(=O)Nc2ccccc2)cc1 [NP16-XL-040, 3-(2,6-difluoro-phenyl)-N-[(4-phenylsulfamoyl)-phenyl]acrylamide] | 2.51
18 | O=C(/C=C/c1ccccc1F)Nc1ccc(S(=O)(=O)Nc2ccccc2)cc1 [NP16-XL-041, 3-(6-fluorophenyl)-N-[(4-phenyl-sulfamoyl)phenyl]-acrylamide] | 3.17
19 | O=C(/C=C/c1cccnc1)Nc1ccc(S(=O)(=O)Nc2ccccc2)cc1 [NP16-XL-042, 3-(pyridin-3-yl)-N-[(4-phenyl-sulfamoyl)phenyl]-acrylamide] | 1.44
20 | N#Cc1ccccc1/C=C/C(=O)Nc1ccc(S(=O)(=O)Nc2ccccc2)cc1 [NP16-XL-043, 3-(6-cyanophenyl)-N-[(4-phenyl-sulfamoyl)phenyl]-acrylamide] | 3.23
21 | O=C(/C=C/c1ccccn1)Nc1ccc(S(=O)(=O)Nc2ccccc2)cc1 [NP16-XL-044, 3-(pyridin-2-yl)-N-[(4-phenyl-sulfamoyl)phenyl]-acrylamide] | 2.47
22 | O=C(/C=C/c1c(F)cccc1F)Nc1ccc(S(=O)(=O)N2CCCCC2)cc1 [NP16-XL-045, 3-(2,6-difluoro-phenyl)-N-[4-(1-piperidine-1-sulfonyl)phenyl]-acrylamide] | 0.88
23 | N#Cc1ccccc1/C=C/C(=O)Nc1ccc(S(=O)(=O)N2CCCCC2)cc1 [NP16-XL-047, 3-(6-cyanophenyl)-N-[4-(1-piperidine-1-sulfonyl)phenyl]-acrylamide] | 3.18
24 | O=C(/C=C/c1ccccc1Br)Nc1ccc(C(=O)Nc2ccccc2)cc1 [NP16-XL-048, 3-(6-bromphenyl)-N-[(4-phenylamine-carbonyl)phenyl]-acrylamide] | 0.23
25 | N#Cc1ccccc1/C=C/C(=O)Nc1ccc(C(=O)Nc2ccccc2)cc1 [NP16-XL-049, 3-(6-cyanophenyl)-N-[(4-phenylamine-carbonyl)phenyl]-acryiamide] | 0.21
26 | CN1CCN(S(=O)(=O)c2ccc(NC(=O)/C=C/c3ccccc3Br)cc2)CC1 [NP16-XL-052, 3-(6-bromophenyl)-N-[4-(4-methyl-1,4-piperazine-1-sulfonyl)phenyl]-acrylamide] | 3.18
27 | CN1CCN(S(=O)(=O)c2ccc(NC(=O)/C=C/c3c(F)cccc3F)cc2)CC1 [NP16-XL-053, 3-(2,6-difluoro-phenyl)-N-[4-(4-methyl-1,4-piperazine-1-sulfonyl)phenyl]-acrylamide] | 1.26
28 | CN1CCN(S(=O)(=O)c2ccc(NC(=O)/C=C/c3ccccc3F)cc2)CC1 [NP16-XL-054, 3-(6-fluorophenyl)-N-[4-(4-methyl-1,4-piperazine-1-sulfonyl)phenyl]-acrylamide] | 2.86

Reference: patent publication US11040949B2, “Compounds affecting pigment production and methods for treatment of bacterial diseases” (Versitech Limited, priority 2017, dated 2021)
